One assay has as its target T1, hPPAR α (LBD) (Homo sapiens, UniProt Q07869).
T1 sequence (Q07869 239-466 limits assumed): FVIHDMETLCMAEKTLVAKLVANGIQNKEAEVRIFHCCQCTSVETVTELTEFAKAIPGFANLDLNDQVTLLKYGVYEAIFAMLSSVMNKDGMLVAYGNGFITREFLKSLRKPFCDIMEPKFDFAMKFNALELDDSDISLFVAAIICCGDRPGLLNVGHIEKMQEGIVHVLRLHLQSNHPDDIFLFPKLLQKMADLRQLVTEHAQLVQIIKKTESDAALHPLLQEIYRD
The assay can be described thus: PPAR activating effect, GAL4-hPPARα (LBD) luciferase reporter in CV-1 cells. For orientation: A reporter such as luciferase makes a cellular process visible.

The target in a further assay is T2, hPPAR δ (LBD) (Homo sapiens, UniProt Q03181).
T2 sequence (Q03181 211-439 limits assumed): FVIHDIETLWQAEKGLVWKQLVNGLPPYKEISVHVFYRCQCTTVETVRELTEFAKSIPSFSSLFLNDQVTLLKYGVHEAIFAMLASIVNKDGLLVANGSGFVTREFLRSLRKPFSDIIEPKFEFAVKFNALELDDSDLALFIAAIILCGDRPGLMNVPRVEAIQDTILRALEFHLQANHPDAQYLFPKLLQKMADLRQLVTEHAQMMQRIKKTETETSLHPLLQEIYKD
The assay can be described thus: PPAR activating effect, GAL4-hPPARδ (LBD) luciferase reporter in CV-1 cells.

The target of the next assay is T3, hPPAR γ (LBD) (Homo sapiens, UniProt P37231).
T3 sequence (P37231 238-503 limits assumed): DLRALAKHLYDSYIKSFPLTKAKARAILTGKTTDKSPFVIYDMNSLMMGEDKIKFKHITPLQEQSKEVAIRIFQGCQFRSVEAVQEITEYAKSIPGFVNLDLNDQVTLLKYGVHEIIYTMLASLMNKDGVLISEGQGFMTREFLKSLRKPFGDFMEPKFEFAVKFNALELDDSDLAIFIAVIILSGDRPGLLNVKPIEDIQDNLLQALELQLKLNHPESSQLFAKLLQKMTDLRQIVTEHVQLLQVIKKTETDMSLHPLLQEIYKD
The assay can be described thus: PPAR activating effect, GAL4-hPPARγ (LBD) luciferase reporter in CV-1 cells.

The subject of a further assay is hPPAR α or γ or δ (LBD). The assay can be described thus: PPAR activating effect, overall assessment over the subtypes (GAL4-hPPAR luciferase reporter in CV-1 cells). The settings on record: summary of Table 17, PPARα and PPARγ.

Molecules are shown by their SMILES. Where two headings read alike, the source gives them in different places. Some results are limits rather than exact numbers.

Procedure for hPPAR α (LBD): (§1) For determining PPAR activating effects of the compounds according to the invention were measured by the following method:
(§2) After gene transfer utilizing a lipofection reagent DMRIE-C or Lipofectamin 2000 (Invitrogen), it is incubated for 42 hours in the presence of the test compound. Then, the luciferase activity and β-GAL activity are measured on the soluble cells. The luciferase activity is calibrated by the β-GAL activity.
(§3) The PPAR activating effects of test compounds (compounds of Examples) were measured by the following method:
(§4) After gene transfer utilizing a lipofection reagent DMRIE-C or Lipofectamin 2000 (Invitrogen), it is incubated for approx. 40 hours in the presence of the test compound. Then, the luciferase activity and β-GAL activity are measured on the soluble cells. The luciferase activity is calibrated by the β-GAL activity. […] Then, EC50 was obtained.
Procedure for hPPAR α or γ or δ (LBD): as §1, §2, §3, §4
Procedure for hPPAR γ (LBD): as §1, §2, §3, §4
Procedure for hPPAR δ (LBD): as §1, §2, §3, §4

As usually defined, the EC50 is the midpoint of the concentration-response curve. Regarding `COc1ccc(N2CCN(Cc3nc(-c4ccc(C(F)(F)F)cc4)sc3CCC(=O)c3ccc(OC(C)(C)C(=O)O)c(C)c3)CC2)cc1` [Example 3, 2-[4-[3-[4-[4-(4-Methoxyphenyl)piperazin-1-yl-methyl]-2-(4-trifluoromethylphenyl)-5-thiazolyl]propionyl]-2-methylphenoxy]-2-methylpropionic Acid], the EC50 at hPPAR α (LBD) is over 10000 nM; at hPPAR δ (LBD) it was 920 nM; on hPPAR γ (LBD), 660 nM.

As to `CCOc1ccc(N2CCN(Cc3nc(-c4ccc(C(F)(F)F)cc4)sc3CCC(=O)c3ccc(OC(C)(C)C(=O)O)c(C)c3)CC2)cc1` [Example 13, 2-[4-[3-[4-[4-(4-Ethoxyphenyl)piperazin-1-yl-methyl]-2-(4-trifluoromethylphenyl)-5-thiazolyl]propionyl]-2-methylphenoxy]-2-methylpropionic Acid], the EC50 turned out to be 330 nM on hPPAR α (LBD), 1100 nM at hPPAR δ (LBD) and 280 nM at hPPAR γ (LBD).

For `Cc1ccc(N2CCN(Cc3nc(-c4ccc(C(F)(F)F)cc4)sc3CCC(=O)c3ccc(OC(C)(C)C(=O)O)c(C)c3)CC2)cc1` [Example 6, 2-[4-[3-[4-[4-(4-Methylphenyl)piperazin-1-yl-methyl]-2-(4-trifluoromethylphenyl)-5-thiazolyl]propionyl]-2-methylphenoxy]-2-methylpropionic Acid], the EC50 on hPPAR α (LBD) was determined as 550 nM; at hPPAR δ (LBD) it was 4900 nM; on hPPAR γ (LBD), 490 nM.

Turning to `COc1cccc(N2CCN(Cc3nc(-c4ccc(C(F)(F)F)cc4)sc3CCC(=O)c3ccc(OC(C)(C)C(=O)O)c(C)c3)CC2)c1` [Example 4, 2-[4-[3-[4-[4-(3-Methoxyphenyl)piperazin-1-yl-methyl]-2-(4-trifluoromethylphenyl)-5-thiazolyl]propionyl]-2-methylphenoxy]-2-methylpropionic Acid], the concentration giving a half-maximal response (EC50) on hPPAR α (LBD) is 210 nM; at hPPAR δ (LBD), 4400 nM; at hPPAR γ (LBD), 1300 nM.

On to `Cc1cc(C(=O)CCc2sc(-c3ccc(C(F)(F)F)cc3)nc2CN2CCN(c3ccc(OC(C)C)cc3)CC2)ccc1OC(C)(C)C(=O)O` [Example 16, 2-[4-[3-[4-[4-(4-Isopropyloxyphenyl)piperazin-1-ylmethyl]-2-(4-trifluoromethylphenyl)-5-thiazolyl]propionyl]-2-methylphenoxy]-2-methylpropionic Acid], for which the concentration for a half-maximal effect (EC50) came out at 180 nM on hPPAR α (LBD), 2300 nM on hPPAR δ (LBD) and 290 nM at hPPAR γ (LBD). For the same molecule, the “α/γ dual agonist effects (in words)” value in the assay with hPPAR α or γ or δ (LBD) is recorded as “good α/γ dual agonist effects”.

For `Cc1cc(C(=O)CCc2sc(-c3ccc(C(F)(F)F)cc3)nc2CN2CCN(c3ccc(OC(F)(F)F)cc3)CC2)ccc1OC(C)(C)C(=O)O` [Example 15, 2-[4-[3-[4-[4-(4-Trifluoromethoxyphenyl)piperazin-1-ylmethyl]-2-(4-trifluoromethylphenyl)-5-thiazol-yl]propionyl]-2-methylphenoxy]-2-methylpropionic Acid], the EC50 on hPPAR α (LBD) was 290 nM; on hPPAR δ (LBD), 6300 nM; on hPPAR γ (LBD), 750 nM.

For the molecule `COc1ccc(CC2SC(=O)NC2=O)cc1C(=O)NCc1ccc(C(F)(F)F)cc1` (stereo not shown) [KRP-297, reference compound], at hPPAR δ (LBD) (read-out: PPAR activity: EC50, δ, CV-1 cells, approx. 40 hours incubation, 100% control GW-501516 10^−7 M), the EC50 was found to be 13900 nM.

On to `COc1ccc(N2CCN(Cc3nc(-c4ccc(C(F)(F)F)cc4)sc3CCC(=O)c3ccc(OC(C)(C)C(=O)O)c(C)c3)CC2)cc1OC` [Example 12, 2-[4-[3-[4-[4-(3,4-Dimethoxyphenyl)piperazin-1-ylmethyl]-2-(4-trifluoromethylphenyl)-5-thiazolyl]propionyl]-2-methylphenoxy]-2-methylpropionic Acid], for which the half-maximal effective concentration (EC50) on hPPAR α (LBD) came out at 940 nM; at hPPAR δ (LBD), 3800 nM; on hPPAR γ (LBD), 1700 nM.

On to `Cc1cc(C(=O)CCc2sc(-c3ccc(C(F)(F)F)cc3)nc2CN2CCN(c3ccc(C(F)(F)F)cc3)CC2)ccc1OC(C)(C)C(=O)O` [Example 5, 2-[4-[3-[4-[4-(4-Trifluoromethylphenyl)-piperazin-1-ylmethyl]-2-(4-trifluoromethylphenyl)-5-thiazolyl]propionyl]-2-methylphenoxy]-2-methylpropionic Acid], for which the half-maximal effective concentration (EC50) worked out at 90 nM on hPPAR α (LBD), 5200 nM at hPPAR δ (LBD) and 3200 nM on hPPAR γ (LBD). In addition, on hPPAR α (LBD) (summary of Table 17), the “PPARα agonist effect (in words)” value is “strong and selective PPARα agonist effect”.

Regarding `Cc1cc(C(=O)CCc2sc(-c3ccc(C(F)(F)F)cc3)nc2CN2CCN(c3ccc(C(C)C)cc3)CC2)ccc1OC(C)(C)C(=O)O` [Example 11, 2-[4-[3-[4-[4-(4-Isopropylphenyl)piperazin-1-ylmethyl]-2-(4-trifluoromethylphenyl)-5-thiazolyl]propionyl]-2-methylphenoxy]-2-methylpropionic Acid], the results for the EC50 at hPPAR α (LBD), on hPPAR δ (LBD) and at hPPAR γ (LBD) were 92 nM, 3000 nM and 300 nM, respectively. Further, the “α/γ dual agonist effects (in words)” value in the assay on hPPAR α or γ or δ (LBD) was “good α/γ dual agonist effects”.

Source of the values: patent publication US20090203908A1, “Activator for Peroxisome Proliferator-Activated Receptor” (NIPPON CHEMIPHAR CO., LTD., priority 2005, published 2009).
